This is an account of results in patent US7605173B2, “Pharmaceutical liquid composition containing pyridone derivative” (KDL, Inc., priority 2002, dated 2009).

Data set [1] is described as follows: Dissolving Pirfenidone in diethylene glycol monoethyl ether (attainable concentration). As to conditions: solvent diethylene glycol monoethyl ether. Format: physicochemical. Here is the method:
That is, the diethylene glycol monoethyl ether was charged to a suitable container and warmed to 60° C. The Pirfenidone was added while stirring and a yellowish solution was obtained by continuing the stirring until the mixture was transparent. All the remaining ingredients as listed in Table 1 were dissolved in water at 60° C. and this solution was poured into the above Pirfenidone solution and the stirring was continued until mixed uniformly. The so obtained solution was protected from the light.
That is, the diethylene glycol monoethyl ether was charged to a suitable container and warmed to 60° C., and the Pirfenidone was added while stirring and a yellowish solution was obtained by continuing the stirring until the whole became transparent. Furthermore, the α-tocopherol was added and water was added while stirring until mixed uniformly. Then, the hydroxypropyl cellulose was added because of its necessity and stirred until a homogenous dispersion was formed. Furthermore, the dispersion was allowed to stand overnight until the particles of hydroxypropyl cellulose, the concentrating agent, were expanded, and finally the product was homogenized. The so obtained dispersion was allowed to stand overnight and a solution in the desired concentration was obtained. The solution was homogenized again and protected from light.

For data set [2] the following is noted: cited from earlier work.

For `Cc1ccc(=O)n(-c2ccccc2)c1` [Pirfenidone, 5-methyl-1-phenyl-2-(1H)-pyridone], the “concentration of Pirfenidone that can be dissolved” value in data set [1] was ~25 % by weight. In addition, the solubility in water entry in data set [2] is “slightly soluble in water”.
